Laboratory results: patent US12636275B2, “Pharmaceutical use of ketoamide-based compound” (Shanghai Institute of Materia Medica, Chinese Academy of …, priority 2020, dated 2026)
Read-outs that look alike come from different tables or passages of the source.

Experiments:
[1] = tested on: 2019 novel coronavirus (2019-nCov); settings: stated for positive control; read-out: EC50, inhibition of 2019-nCoV virus replication (positive compound CQ); cited from earlier work
2019-nCoV 3CL protease = target: T1, 2019-nCoV 3CL protease (Severe acute respiratory syndrome coronavirus 2, UniProt P0DTD1); experiment: Inhibitory activity against 3CL protease of 2019 novel coronavirus (FRET); assay type: biochemical; settings: for IC50: FRET, 37° C., substrate 20 μM
T1 construct: against 3CL protease of 2019 novel coronavirus (2019-nCoV 3CL^pro)
Description: To determine the inhibitory activity of the compound against 3CL protease of 2019 novel coronavirus (2019-nCoV 3CL^pro): the enzyme level inhibitory activity of inhibitors against 3CL protease was determined by fluorescence resonance energy transfer (FRET) technology. In a 96-well plate, 27.5 μL of buffer (20 mM Tris, 100 mM NaCl, 1 mM EDTA, pH 7.4) was added to each well, 2.5 μL compounds ([…], respectively) and 5 μL […] (final concentration was 3 μM) were added at the same time. Incubated at 37° C. for 15 min. Then 15 μL fluorescent substrate diluted with buffer (final concentration was 20 μM) was added. The fluorescence parameters were determined by Ge n5 fluorescence spectrophotometer. The excitation wavelength and emission wavelength were 340 nm and 490 nm respectively, kept at 37° C., and the data were read after 10 min. A negative control was used, in which no compound was added to the control, and the rest was the same.

human cathepsin L = human cathepsin L (Homo sapiens, UniProt P07711); experiment: Inhibitory activity against human cathepsin L (FRET, Z-Phe-Arg-AMC substrate); assay type: biochemical; settings: pH 5.5, 25° C.
human cathepsin L, sequence (P07711 114-333): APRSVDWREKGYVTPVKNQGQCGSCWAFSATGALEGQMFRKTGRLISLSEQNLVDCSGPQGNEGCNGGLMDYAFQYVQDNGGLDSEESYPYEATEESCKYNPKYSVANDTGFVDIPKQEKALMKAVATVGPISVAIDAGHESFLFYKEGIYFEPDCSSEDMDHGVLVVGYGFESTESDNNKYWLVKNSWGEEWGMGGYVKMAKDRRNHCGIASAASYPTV
Description: To determine the inhibitory activity of the compound against human cathepsin L (CatL): the enzyme level inhibitory activity against cathepsin L was determined by fluorescence resonance energy transfer (FRET) technique. In a 96-well plate, 10 μL buffer (50 mM CH3COONa, pH 5.5, 1 mM DTT, 2 mM EDTA) was added to each well, while 0.2 μL of compound (final concentrations were 100 nM, 10 nM, 1 nM, 0.1 nM and 0.01 nM, respectively) and 10 μL cathepsin L were added, and incubated at 25° C. for 15 min. Then 10 μL fluorescent substrate (Z-Phe-Arg-AMC, final concentration was 20 μM) diluted with buffer was added. The fluorescence parameters were determined by Tecan Infinite 200pro fluorescence spectrophotometer. The excitation wavelength and emission wavelength were 360 nm and 465 nm respectively, kept at 25° C., and the data were read after 30 min. A negative control was used, in which no compound was added to the control, and the rest was the same.

[2] = tested on: 2019 novel coronavirus (2019-nCov); experiment: Inhibitory activity on replication of 2019 novel coronavirus (cytopathic effect, MTS, RD cells); assay type: cell-based; settings: for virus inhibitory activity (in words): CQ as positive control, different concentration gradients; for EC50: Severe acute respiratory syndrome coronavirus 2, RD, read-out: EC50, inhibition of 2019-nCoV virus replication
[3] = Toxicity test in SD rats with repeated intravenous administration; assay type: in vivo
Excerpt: The purpose of this experiment is to observe the potential toxicity of SD rats after intravenous DC406009 for 7 consecutive days and to determine the possible toxic target organs. To provide non-toxic dose and/or toxic dose for the subsequent toxicity test design and clinical trial protocol design. To assess the level of drug exposure in vivo, a toxicokinetic evaluation is accompanied.
36 SD rats were divided into 8 groups (3 in toxicity test group/gender/group, a total of 5 groups; 1 in toxic satellite group/gender/group, 3 groups), intravenous injection of solvent (5% DMSO/5% EtOH/40% PEG300/50% NaCl), 0.9% sodium chloride injection and DC406009 (5, 15, 30 mg/kg/day), once a day for 7 consecutive days, all animals were euthanized on Day 8. During the test, the following indicators were evaluated: toxicology (only samples were collected), clinical observation, body weight, food consumption, clinical pathology (hematology, hemagglutination, plasma biochemistry) and anatomical macroscopic morphological observation.

## CCN(CC)CCCC(C)Nc1ccnc2cc(Cl)ccc12 (stereo not shown) [CQ]
[1]
  EC50: 1.13 µM

## O=C(NCc1ccccc1)C(=O)[C@H](C[C@@H]1CCCNC1=O)NC(=O)[C@H](CC1CCCCC1)NC(=O)c1cc2ccccc2o1 [Example A13, N—((S)-1-(((S)-4-(benzylamino)-3,4-dione-1-((S)-2-oxopiperidin-3-yl)but-2-yl)amino)-3-cyclohexyl-1-oxopropan-2-yl)-benzofuran-2-carboxamide]
2019-nCoV 3CL protease
  IC50: 2.4 µM
Human cathepsin L
  IC50: 1.36 ± 0.04 nM
[2]
  virus inhibitory activity (in words): excellent virus inhibitory activity
  EC50: 9.24 µM

## O=C(NCc1ccccc1)C(=O)[C@H](C[C@@H]1CCCNC1=O)NC(=O)[C@H](CC1CCCCC1)NC(=O)c1cc2ccccc2[nH]1 [Example A5, N—((S)-1-(((S)-4-(benzylamino)-3,4-dione-1-((S)-2-oxopiperidin-3-yl)but-2-yl)amino)-3-cyclohexyl-1-oxopropan-2-yl)-1H-indole-2-carboxamide]
Human cathepsin L
  IC50: 0.45 ± 0.02 nM

## O=C(NC1CC1)C(=O)[C@H](C[C@@H]1CCCNC1=O)NC(=O)[C@H](CC1CCCCC1)NC(=O)c1cc2ccccc2o1 [Example A309, N—((S)-1-(((S)-4-(cyclopropylamino)-3,4-dione-1-((S)-2-oxopiperidin-3-yl)but-2-yl)amino)-3-cyclohexyl-1-oxopropan-2-yl)-benzofuran-2-carboxamide]
Human cathepsin L
  IC50: 0.63 ± 0.08 nM

## O=C(NCc1ccccc1)C(=O)[C@H](C[C@@H]1CCNC1=O)NC(=O)[C@H](CC1CCCCC1)NC(=O)c1ccc2ccccc2n1 [Example A42, N—((S)-1-(((S)-4-(benzylamino)-3,4-dione-1-((S)-2-oxopyrrolidin-3-yl)but-2-yl)amino)-3-cyclohexyl-1-oxopropan-2-yl)-quinoline-2-carboxamide]
2019-nCoV 3CL protease
  IC50: 3 µM
[2]
  virus inhibitory activity (in words): excellent virus inhibitory activity
  EC50: 0.581 µM
[2]; listed as 4001
  virus inhibitory activity (in words): better than that of positive control CQ

## O=C(NC1CC1)C(=O)[C@H](C[C@@H]1CCCNC1=O)NC(=O)[C@H](Cc1ccc(F)cc1)NC(=O)c1cc2ccccc2o1 [Example A310, N—((S)-1-(((S)-4-(cyclopropylamino)-3,4-dione-1-((S)-2-oxopiperidin-3-yl)but-2-yl)amino)-3-(4-fluorophenyl)-1-oxopropan-2-yl)-benzofuran-2-carboxamide]
Human cathepsin L
  IC50: 0.57 ± 0.01 nM

## O=C(NCc1ccccc1)C(=O)[C@H](C[C@@H]1CCCNC1=O)NC(=O)[C@H](Cc1cccc(F)c1)NC(=O)c1cc2ccccc2o1 [Example A284]
Human cathepsin L
  IC50: 0.45 ± 0.01 nM

## O=C(NCc1ccccc1)C(=O)[C@H](C[C@@H]1CCCNC1=O)NC(=O)[C@H](Cc1ccc(F)cc1)NC(=O)c1cc2ccccc2o1 [Example A289]
2019-nCoV 3CL protease; compound 1 uM, read-out: 1 uM inhibition rate
  inhibition at 1 µM: 13.5%
2019-nCoV 3CL protease; compound 10 uM, read-out: 10 uM inhibition rate
  inhibition at 10 µM: 40.8%
Human cathepsin L
  IC50: 0.66 ± 0.008 nM
[2]
  virus inhibitory activity (in words): excellent virus inhibitory activity
  EC50: 0.296 µM
[2]; listed as 6009
  virus inhibitory activity (in words): better than that of positive control CQ
[3]; SD rats, 5, 15, 30 mg/kg/day intravenously once a day for 7 consecutive days
  tolerability (in words): animals can tolerate
[3]; both sexes, SD, rat, in vivo, iv
  MTD at 7 days: > 30 mg/kg/day

## O=C(NCc1ccccc1)C(=O)[C@H](C[C@@H]1CCCNC1=O)NC(=O)[C@H](Cc1ccc(F)c(F)c1)NC(=O)c1cc2ccccc2o1 [Example A290]
Human cathepsin L
  IC50: 0.47 ± 0.06 nM

## O=C(NC1CCCCC1)C(=O)[C@H](C[C@@H]1CCNC1=O)NC(=O)[C@H](Cc1ccccc1)NC(=O)c1cc2ccccc2o1 [Example A56]
2019-nCoV 3CL protease
  IC50: 24.1 µM

## O=C(NCc1cc(F)cc(F)c1)C(=O)[C@H](C[C@@H]1CCCNC1=O)NC(=O)[C@H](CC1CCCCC1)NC(=O)c1cc2ccccc2o1 [Example A270, N—((S)-1-(((S)-4-(3,5-difluorobenzylamino)-3,4-dione-1-((S)-2-oxopiperidin-3-yl)but-2-yl)amino)-3-cyclohexyl-1-oxopropan-2-yl)-benzofuran-2-carboxamide]
2019-nCoV 3CL protease
  IC50: 7.6 µM

## CC(C)NC(=O)CC[C@H](NC(=O)[C@H](Cc1ccccc1)NC(=O)c1cc2ccccc2[nH]1)C(=O)C(=O)NCC1CCCCC1 [Example A234]
2019-nCoV 3CL protease
  IC50: 10.3 µM
